System: breast cancer patients
Experiment: Prognostic relevance of ESR1 alterations in breast cancer treated with Tamoxifen (tissue microarray FISH/IHC with survival analysis)
Assay type: in vivo, human
From the text: Contingency table analysis and Chi-square tests were used to study the relationship between histologic tumor type, grade, stage and gene amplification. Survival curves were plotted according to Kaplan-Meier. A log rank test was applied to examine the relationship between gene amplifications and patient survival.
2.1 The general results obtained by CGH were verified by fluorescence in situ hybridization (FISH) using existing tissue microarrays. A breast cancer Prognosis Tissue Microarray containing more than 2517 breast tissues was analyzed. […]
2.3 The TMA sections were treated according to the Paraffin Pretreatment Reagent Kit protocol (Vysis, Downers Grove, Ill.) before hybridization. […] In a second more refined analysis FISH signal numbers of the ESR1 gene and centromere 6 were counted in each tissue spot. […]
3.1 Immunohistochemical detection of the estrogen receptor alpha protein was performed using the above described TMAs and antibody NCL-L-ER-6F11 as a primary antibody (Novocastra, Newcastle, UK). […] In brief, intensity of the estrogen receptor staining was recorded in a 4-step scale (0-3) and the fraction of ER positive tumor cells in a 5-step (1-5) scale. […]

Question: CC/C(=C(\c1ccccc1)c1ccc(OCCN(C)C)cc1)c1ccccc1 [Tamoxifen] was tested. Which “prognosis of Tamoxifen treated patients with ESR1 amplification” value (Tamoxifen monotherapy after surgery, ESR1 amplified versus ER positive by IHC without ESR1 amplification, p<0.0001 (FIG. 4)) did it give?
Answer: significantly better

Question: What about the “overall survival of patients with ESR1-amplified tumors under anti-estrogen therapy with Tamoxifen” value (compared to patients with tumors not exhibiting ESR1 amplification (FIG. 4)) of the same compound?
Answer: significantly increased
